Tests used:
RORγ = target: T1, RORγ (Homo sapiens, UniProt P51449); conditions: reporter gene assay, HEK293; read-out: RORγ inverse agonistic activity (IC50); cited from earlier work
T1 construct: expressed in transfected cells; host or cells: HEK293
T1 sequence (P51449 1-518): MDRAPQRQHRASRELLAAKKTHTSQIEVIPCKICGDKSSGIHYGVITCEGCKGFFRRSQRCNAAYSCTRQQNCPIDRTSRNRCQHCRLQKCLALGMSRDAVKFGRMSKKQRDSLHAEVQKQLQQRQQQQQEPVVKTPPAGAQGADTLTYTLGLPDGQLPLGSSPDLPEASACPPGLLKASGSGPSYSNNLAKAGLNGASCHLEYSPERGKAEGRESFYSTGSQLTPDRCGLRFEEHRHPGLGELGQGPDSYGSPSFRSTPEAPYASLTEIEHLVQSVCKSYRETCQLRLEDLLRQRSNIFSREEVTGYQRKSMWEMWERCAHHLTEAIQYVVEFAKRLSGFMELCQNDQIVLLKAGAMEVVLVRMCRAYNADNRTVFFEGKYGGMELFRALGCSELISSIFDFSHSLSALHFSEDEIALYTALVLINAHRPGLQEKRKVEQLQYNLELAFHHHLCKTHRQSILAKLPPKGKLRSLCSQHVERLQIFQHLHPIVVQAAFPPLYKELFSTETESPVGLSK

RORβ = target: T2, RORβ (Homo sapiens, UniProt Q92753); conditions: reporter gene assay, HEK293; read-out: RORβ inverse agonistic activity (IC50); cited from earlier work
T2 construct: expressed in transfected cells; host or cells: HEK293
T2 sequence (Q92753 1-459 isoform Q92753-1): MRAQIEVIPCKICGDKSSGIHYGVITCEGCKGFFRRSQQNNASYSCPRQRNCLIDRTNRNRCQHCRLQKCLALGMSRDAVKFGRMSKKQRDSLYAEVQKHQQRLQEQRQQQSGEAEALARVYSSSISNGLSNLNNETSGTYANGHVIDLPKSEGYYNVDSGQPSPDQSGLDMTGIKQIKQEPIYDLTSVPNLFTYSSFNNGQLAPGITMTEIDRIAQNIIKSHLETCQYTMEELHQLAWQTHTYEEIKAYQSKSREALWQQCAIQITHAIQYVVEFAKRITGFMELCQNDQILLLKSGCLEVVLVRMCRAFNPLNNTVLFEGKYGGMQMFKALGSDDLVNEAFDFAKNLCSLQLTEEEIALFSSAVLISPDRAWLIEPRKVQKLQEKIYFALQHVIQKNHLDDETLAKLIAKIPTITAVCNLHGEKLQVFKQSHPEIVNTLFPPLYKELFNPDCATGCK

RORα = target: T3, RORα (Homo sapiens, UniProt P35398); conditions: reporter gene assay, HEK293; read-out: RORα inverse agonistic activity (IC50); cited from earlier work
T3 construct: expressed in transfected cells; host or cells: HEK293
T3 sequence (P35398 1-523): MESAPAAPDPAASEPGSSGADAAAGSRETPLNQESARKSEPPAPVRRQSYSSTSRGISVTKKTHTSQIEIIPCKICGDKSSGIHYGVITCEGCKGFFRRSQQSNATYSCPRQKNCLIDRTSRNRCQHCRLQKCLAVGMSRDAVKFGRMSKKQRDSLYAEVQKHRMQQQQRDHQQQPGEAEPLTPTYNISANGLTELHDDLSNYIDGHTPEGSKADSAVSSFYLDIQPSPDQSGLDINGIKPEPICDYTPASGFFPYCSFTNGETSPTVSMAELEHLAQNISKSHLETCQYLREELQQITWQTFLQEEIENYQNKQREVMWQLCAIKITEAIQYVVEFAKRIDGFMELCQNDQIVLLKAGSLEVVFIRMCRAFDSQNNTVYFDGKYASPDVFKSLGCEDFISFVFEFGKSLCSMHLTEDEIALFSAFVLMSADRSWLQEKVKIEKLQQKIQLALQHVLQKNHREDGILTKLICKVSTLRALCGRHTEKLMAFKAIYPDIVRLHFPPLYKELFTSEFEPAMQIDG

AR = target: T4, AR (Homo sapiens, UniProt P10275); assay: AR reporter gene assay in HEK293; type: cell-based; conditions: for IC50: reporter gene assay, HEK293, agonist dihydrotestosterone 0.3 nM, read-out: AR antagonistic activity (IC50), AR reporter gene
T4 sequence (P10275 1-920): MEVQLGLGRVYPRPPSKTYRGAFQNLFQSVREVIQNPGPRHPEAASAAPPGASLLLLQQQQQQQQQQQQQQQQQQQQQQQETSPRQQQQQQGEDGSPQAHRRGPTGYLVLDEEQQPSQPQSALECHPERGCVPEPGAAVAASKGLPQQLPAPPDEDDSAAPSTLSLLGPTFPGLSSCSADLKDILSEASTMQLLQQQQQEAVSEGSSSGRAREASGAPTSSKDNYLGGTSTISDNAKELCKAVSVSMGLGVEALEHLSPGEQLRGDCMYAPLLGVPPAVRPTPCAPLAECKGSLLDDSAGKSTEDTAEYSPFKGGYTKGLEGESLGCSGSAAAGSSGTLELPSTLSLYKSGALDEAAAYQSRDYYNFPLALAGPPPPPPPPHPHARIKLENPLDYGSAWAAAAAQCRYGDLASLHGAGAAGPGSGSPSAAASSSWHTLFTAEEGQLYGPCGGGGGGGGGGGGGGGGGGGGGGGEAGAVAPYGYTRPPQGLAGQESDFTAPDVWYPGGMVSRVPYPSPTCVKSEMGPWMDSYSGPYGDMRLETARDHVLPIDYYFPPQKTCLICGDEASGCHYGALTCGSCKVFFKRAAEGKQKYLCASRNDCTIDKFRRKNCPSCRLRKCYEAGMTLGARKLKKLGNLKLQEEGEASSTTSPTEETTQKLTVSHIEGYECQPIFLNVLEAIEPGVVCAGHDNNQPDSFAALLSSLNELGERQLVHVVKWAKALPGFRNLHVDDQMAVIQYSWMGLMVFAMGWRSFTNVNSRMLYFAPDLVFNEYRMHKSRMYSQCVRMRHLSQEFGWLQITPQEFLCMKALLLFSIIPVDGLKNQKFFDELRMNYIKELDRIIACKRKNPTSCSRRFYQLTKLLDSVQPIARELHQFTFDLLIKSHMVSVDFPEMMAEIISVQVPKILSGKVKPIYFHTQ

LXRα = target: T5, LXRα (Homo sapiens, UniProt Q13133); assay: LXRα reporter gene assay in HEK293; type: cell-based; conditions: read-out: LXRα antagonistic activity (IC50)
T5 construct: CMX-GAL4N-hLXRα-LBD; expressed in transfected cells; host or cells: HEK293
T5 sequence (Q13133 209-447 limits assumed): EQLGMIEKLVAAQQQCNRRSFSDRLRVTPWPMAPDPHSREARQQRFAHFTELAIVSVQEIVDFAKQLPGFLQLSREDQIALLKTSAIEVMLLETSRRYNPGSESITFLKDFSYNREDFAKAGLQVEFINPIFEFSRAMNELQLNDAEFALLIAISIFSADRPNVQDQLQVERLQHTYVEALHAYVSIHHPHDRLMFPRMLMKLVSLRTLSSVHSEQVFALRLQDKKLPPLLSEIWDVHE

| SMILES | IC50 (AR) [µM] | IC50 (LXRα) [µM] | selectivity for AR over LXRα (AR) [fold] | selectivity for AR over PR (AR) [fold] | selectivity for AR over RORs and LXRβ (AR) | AR potency relative to OHF (more potent) (AR; under the authors' assay conditions) [fold] | IC50 (RORγ) [µM] | IC50 (RORβ) [µM] | IC50 (RORα) [µM] |
| --- | --- | --- | --- | --- | --- | --- | --- | --- | --- |
| CCCCn1c(=O)c2ccccc2c2ccccc21 [Compound 7] | 17 | 19 | – | – | – | – | 15 | 13 | 10 |
| CCCCn1c(=O)c2ccccc2c2cc(C(C)(C)C)ccc21 [Compound 10] | 17 | > 20 | – | – | – | – | 10 | 13 | 12 |
| CCCCn1c(=O)c2ccccc2c2cc(CO)ccc21 [Compound 11] | 9.6 | > 20 | – | – | – | – | > 20 | > 20 | > 20 |
| CCCCn1c(=O)c2c(OC)cccc2c2cc(C(O)(C(F)(F)F)C(F)(F)F)ccc21 [Compound 21] | 9.4 | 11 | – | – | – | – | 13 | 15 | 12 |
| CCCCn1c(=O)c2ccc(OC)cc2c2cc(C(O)(C(F)(F)F)C(F)(F)F)ccc21 [Compound 23] | > 20 | 7 | – | – | – | – | 2.7 | 7.2 | 6.6 |
| CCCCn1c(=O)c2cccc(OC)c2c2cc(C(O)(C(F)(F)F)C(F)(F)F)ccc21 [Compound 24] | > 20 | 4.6 | – | – | – | – | 8.5 | > 20 | 7.7 |
| CCCCn1c(=O)c2ccccc2c2cc(C(O)(C(F)(F)F)C(F)(F)F)c3c(c21)OCO3 [Compound 26] | 0.54 | > 20 | – | – | – | – | > 20 | > 20 | > 20 |
| CCCCn1c(=O)c2cc(OC)ccc2c2cc(C(O)(C(F)(F)F)C(F)(F)F)c(OC)cc21 [Compound 27] | 0.58 | 17 | – | – | – | – | 12 | 13 | 9.5 |
| CCCCn1c(=O)c2cc(OC)ccc2c2cc(C(O)(C(F)(F)F)C(F)(F)F)cc(OC)c21 [Compound 28] | 1.7 | > 10 | – | – | – | – | 9.7 | 11 | 11 |
| CCCCn1c(=O)c2c(OC)c(OC)ccc2c2cc(C(O)(C(F)(F)F)C(F)(F)F)ccc21 [Compound 29] | 4.6 | 3.2 | – | – | – | – | 8 | 7.7 | 7.3 |
| CCCCn1c(=O)c2c(OC)cc(OC)cc2c2cc(C(O)(C(F)(F)F)C(F)(F)F)ccc21 [Compound 30] | > 20 | > 20 | – | – | – | – | > 20 | > 20 | > 20 |
| CCCCn1c(=O)c2cc(OC)c(OC)cc2c2cc(C(O)(C(F)(F)F)C(F)(F)F)ccc21 [Compound 31] | 1.6 | 8.8 | – | – | – | – | 19 | 16 | 18 |

Now from value to compound, other results behind:

| IC50 (AR) [µM] | IC50 (LXRα) [µM] | selectivity for AR over LXRα (AR) [fold] | selectivity for AR over PR (AR) [fold] | selectivity for AR over RORs and LXRβ (AR) | AR potency relative to OHF (more potent) (AR; under the authors' assay conditions) [fold] | SMILES | IC50 (RORγ) [µM] | IC50 (RORβ) [µM] | IC50 (RORα) [µM] |
| --- | --- | --- | --- | --- | --- | --- | --- | --- | --- |
| 0.1 | – | – | – | – | – | O=c1[nH]c2ccc(C(O)(C(F)(F)F)C(F)(F)F)cc2c2ccccc12 [Compound 1] | > 20 | > 20 | > 20 |
| 0.5 | – | – | – | – | – | Cn1c(=O)c2ccccc2c2cc(C(O)(C(F)(F)F)C(F)(F)F)ccc21 [Compound 13] | > 20 | > 20 | > 20 |
| 1.7 | 14 | – | – | – | – | CCn1c(=O)c2ccccc2c2cc(C(O)(C(F)(F)F)C(F)(F)F)ccc21 [Compound 14] | > 20 | > 20 | > 20 |
| 15 | > 20 | – | – | – | – | CCCCCCCCCn1c(=O)c2ccccc2c2cc(C(O)(C(F)(F)F)C(F)(F)F)ccc21 [Compound 17] | > 20 | > 20 | > 20 |
| > 20 | > 20 | – | – | – | – | CCCCn1c(=O)c2ccccc2c2c(OC)c(C(O)(C(F)(F)F)C(F)(F)F)ccc21 [Compound 18] | > 20 | > 20 | > 20 |
| 1.1 | 8.4 | – | – | – | – | CCCCn1c(=O)c2ccccc2c2cc(C(O)(C(F)(F)F)C(F)(F)F)c(OC)cc21 [Compound 19] | 7.5 | 8.2 | 8.2 |
| 2.4 | 6.9 | – | – | – | – | CCCCn1c(=O)c2ccccc2c2cc(C(O)(C(F)(F)F)C(F)(F)F)cc(OC)c21 [Compound 20] | 5.4 | 6.9 | 7.5 |
| 1 | 12 | – | – | – | – | CCCCn1c(=O)c2cc(OC)ccc2c2cc(C(O)(C(F)(F)F)C(F)(F)F)ccc21 [Compound 22] | 13 | 15 | 12 |
| 6.1 | 8.5 | – | – | – | – | CCCCn1c(=O)c2ccccc2c2cc(C(O)(C(F)(F)F)C(F)(F)F)c(OC)c(OC)c21 [Compound 25] | 8.5 | > 10 | > 10 |
| 0.39 | 3.1 | – | – | – | – | O=c1[nH]c2c(F)cc(C(O)(C(F)(F)F)C(F)(F)F)cc2c2ccccc12 [Compound 32] | 18 | 14 | 15 |
| 0.46 | 3.1 | – | – | – | – | O=c1[nH]c2ccc(C(O)(C(F)(F)F)C(F)(F)F)cc2c2cccc(F)c12 [Compound 33] | 13 | 9.8 | 7.9 |
| 0.059 | 5.3 | 90 | 6 | more than 340 fold | 2.9 | O=c1[nH]c2c(Cl)cc(C(O)(C(F)(F)F)C(F)(F)F)cc2c2ccccc12 [Compound 43, 4-Chloro-2-(1,1,1,3,3,3-hexafluoro-2-hydroxypropan-2-yl)phenanthridin-6(5H)-one] | – | – | – |

Source: PMC6073568, “Efficient Lead Finding, Activity Enhancement and Preliminary Selectivity Control of Nuclear Receptor Ligands Bearing a Phenanthridinone Skeleton” (International Journal of Molecular Sciences, 2018)
